Data set [1] relates to rats in which trigeminal neuralgia was induced by the trigeminal nerve root compression. Nature of the data set: Air-puff test of mechanical allodynia in rats with trigeminal neuralgia induced by trigeminal nerve root compression. Type of data set: in vivo, rats (Sprague-Dawley). To be noted: rat; for analgesic effect on mechanical allodynia induced by trigeminal nerve root compression: FIG. 2. The procedure:
(§1) Mature male rats (Sprague-Dawley, 200-230 g) were used. The experimental animals were maintained under conditions of light-and-darkness cycle of 12 hours, a temperature of 22 to 25° C., a relative humidity of 40 to 60%, and free access to water and food.
Rats were anesthetized with a mixed solution of ketamine (40 mg/kg) and xylazine (4 mg/kg), fixed on a stereotaxic instrument, and 4% agar solution was injected into the left trigeminal nerve roots using a stainless steel injection tube to compress the trigeminal nerve roots. 10 μl of 4% agar solution was slowly injected over the trigeminal nerve roots for 5 seconds, and the injection tube was removed after 5 minutes and then sutured (Jeon H J. et. al., A novel trigeminal neuropathic pain model: compression of the trigeminal nerve root produces prolonged nociception in rats, Prog Neuropsychopharmacol Biol Psychiatry. 2012).
(§2) To observe the behavioral response, the animals were placed in a cage and adapted for 20 minutes in a quiet area, followed by an air-puff test to assess mechanical allodynia to air stimulation. Aggressive behaviors such as head movement to avoid air stimulation or biting in response to the air stimulation applied to the facial region which is dominated by the trigeminal nerve were used as evaluation criteria for the behavioral reflex. A total of 10 trials and 50% or more responses were considered as the threshold of stimulation.
On the 7th day after surgery, the test compound (10, 30 and 50 mg/kg) and carbamazepine (25 and 50 mg/kg) were intraperitoneally administered to the test animals in which allodynia had been induced. At 30 minutes, 60 minutes, 90 minutes, 2 hours, 3 hours, 4 hours and 6 hours after administration, the pharmacological effects of the drugs were evaluated by observing changes in the behavioral responses.
(§3) The effect of the compounds was expressed as mean±standard error, and statistical significance was recognized when data were p<0.05 difference using one-way ANOVA and Dunnett's test.

The test system of data set [2] is rats in which facial pain was induced by inferior alveolar nerve injury. The data set is described as follows: Air-puff test of mechanical allodynia in rats with facial pain induced by inferior alveolar nerve injury. The format is in vivo, rats (Sprague-Dawley). The following applies: rat; for analgesic effect on mechanical allodynia induced by inferior alveolar nerve injury: FIG. 4. The procedure:
as §1, §2
On the 7th day after surgery, the test compound (5, 10 and 20 mg/kg) and carbamazepine (25 and 50 mg/kg) were intraperitoneally administered to the test animals in which allodynia had been induced. At 30 minutes, 60 minutes, 90 minutes, 2 hours, 3 hours, 4 hours and 6 hours after administration, the pharmacological effects of the drugs were evaluated by observing changes in the behavioral responses.
as §3

Data set [3] deals with formalin-induced pain behavioral response in rats. Nature of the data set: Formalin-induced facial pain behavioral response in rats. The following applies: 5 and 20 mg/kg intraperitoneal 30 minutes before 5% formalin, rat, FIG. 5. Type of data set: in vivo, rats (Sprague-Dawley). The procedure:
as §1
5% Formalin (50 μl) was injected subcutaneously into the vibrissa pad on the left facial area of the rats using an insulin syringe (31 gauge). The behavioral response of rubbing or scratching the maxillofacial area was observed from 10 minutes after injection, accumulating in a unit of 5 minutes, for a total of 35 minutes (Park M K. et. al., Peripheral administration of NR2 antagonists attenuates orofacial formalin-induced nociceptive behavior in rats, Prog Neuropsychopharmacol Biol Psychiatry, 2011).
The vehicle, the test compound (5 and 20 mg/kg) and carbamazepine (25 mg/kg) were intraperitoneally administered, and after 30 minutes 5% formalin was injected into the left facial area.
as §3

The conditions of data set [4]: patients treated for trigeminal neuralgia; cited from earlier work.
Setting [5] is: 30 and 50 mg/kg intraperitoneal.
The mark [6] stands for this setting: overall conclusion, intraperitoneal.

We go through two molecules from patent US12611395B2, “Use of carbamate compound for preventing or treating trigeminal neuralgia” (SK BIOPHARMACEUTICALS CO., LTD., priority 2016, dated 2026).

The structures appear in SMILES notation.

For the molecule `NC(=O)O[C@@H](Cn1ncnn1)c1ccccc1Cl` [test compound], the “inhibition of mechanical allodynia induced by trigeminal nerve root compression” value in data set [1] (30 and 50 mg/kg intraperitoneal, 7th day after surgery, FIG. 1) is given as “significantly inhibited”. Moreover, in data set [1] (setting [5]), the “time after administration for which analgesic effect was maintained” value worked out at 6 h and the “time after administration from which analgesic effect could be observed” value stood at 60 min. Further, the “analgesic action in the trigeminal neuralgia animal model compared with carbamazepine” value in data set [1] (setting [6]) was “better analgesic action than carbamazepine”. Besides, in data set [2] (20 mg/kg intraperitoneal), the “time after administration from which significant pain-relieving effect was observed” value was 90 min and the “time for which pain-relieving effect was maintained” value stood at 4 h. Also, in data set [2] (5, 10 and 20 mg/kg intraperitoneal, 7th day after surgery, FIG. 3), the “inhibition of mechanical allodynia induced by inferior alveolar nerve injury” value is listed as “significantly inhibited”. In addition, in data set [2] (5 and 10 mg/kg intraperitoneal), the “time after administration from which the effect was significant” value was 90 min and the “time after administration up to which the effect was significant” value is 2 h. The “analgesic action in the inferior alveolar nerve injury-induced facial pain model compared with carbamazepine” value in data set [2] (setting [6]) is given as “equivalent to or greater than carbamazepine”. Moreover, the “pain behavioral response as compared with the vehicle-administered group” value in data set [3] was “statistically significant decrease”.

Turning to `NC(=O)N1c2ccccc2C=Cc2ccccc21` [carbamazepine, reference compound], the “analgesic effect on mechanical allodynia induced by trigeminal nerve root compression” value in data set [1] (25 mg/kg intraperitoneal) is given as “no analgesic effect”; in data set [1] (50 mg/kg intraperitoneal), “transient low analgesic effect”. In addition, the “analgesic effect on mechanical allodynia induced by inferior alveolar nerve injury” value in data set [2] (25 mg/kg intraperitoneal) is “no analgesic effect”; in data set [2] (50 mg/kg intraperitoneal), “significant analgesic effect”. Besides, the “time after administration at which the analgesic effect completely disappeared” value in data set [2] (50 mg/kg intraperitoneal) is 2 h. Besides, in data set [4], the “patients with side effects drowsiness, ataxia, nausea and anorexia” value is listed as “about 40%”.
